Earlier results on one molecule are cited in patent US20040176378A1, “Compositions of a cyclooxygenase-2 selective inhibitor and an amphetamine for the treatment of reduced blood flow to the central nervous system” (Pharmacia Corporation, priority 2003, published 2004).

The subject of one series is human stroke victims. Conditions: coupled with physical therapy, compared to stroke victims receiving only physical therapy.

On to `CC(N)Cc1ccccc1` (centres unmarked) [amphetamine], for which the alternative circuit activation result in the series on infarcted rats is recorded as “promoted alternative circuit activation”. Also, the motor recovery result in the series with human stroke victims was “accelerated motor recovery”.
